From patent US20260217701A1, “SELECTIVE BET INHIBITORS AND USES THEREOF” (Tay Therapeutics Limited, priority 2022, published 2026)

How the values were obtained:
BRD4 BD1 = molecular target: T1, BRD4 BD1 (Homo sapiens, UniProt O60885); experiment: NanoBRET bromodomain assay, NanoLuc-BRD4-BD1 in HEK293 cells; assay type: binding
T1 construct: HEK293 cells were transfected using NanoLuc-BRD4-BD1 or NanoLuc-BRD4-BD2 fusion vectors
Description: Exemplary compounds of the disclosure are active against BRD4 BD2 and selective over BRD4 BD1. BRD4 is a representative example of the BET family, as the binding sites of all BET family members are structurally similar. […] IC50s and fold selectivity's are determined as described below and are represented in Table 1.
(§1) Plates were then incubated at 37° C.+5% CO2 incubator for 2 hours.
(§2) Fold Selectivity Calculated (IC50 BD1/IC50 BD2).

BRD4 BD2 = molecular target: T2, BRD4 BD2 (Homo sapiens, UniProt O60885); experiment: NanoBRET bromodomain assay, NanoLuc-BRD4-BD2 in HEK293 cells; assay type: binding; conditions: for Fold Selectivity BRD4 BD1/BD2: IC50 BD1/IC50 BD2, qualitative if an IC50 is at the upper limit
T2 construct: HEK293 cells were transfected using NanoLuc-BRD4-BD1 or NanoLuc-BRD4-BD2 fusion vectors
Description: as §1, §2

| Structure (SMILES) | IC50 (BRD4 BD1) [µM] | IC50 (BRD4 BD2) [µM] | Fold Selectivity BRD4 BD1/BD2 (BRD4 BD2) |
| --- | --- | --- | --- |
| Cn1cc(-c2cc(=O)n(C3CC3)cc2-c2ccccc2)c2cc(-c3ccc(F)cc3F)[nH]c2c1=O [Example 49, 4-(1-cyclopropyl-2-oxo-5-phenyl-1,2-dihydropyridin-4-yl)-2-(2,4-difluorophenyl)-6-methyl-1,6-dihydro-7H-pyrrolo[2,3-c]pyridin-7-one] | > 1 | < 0.01 | xxxx (Fold >1000) |
| COc1cccc(-c2cc3c(-c4cc(=O)n(C5CC5)cc4-c4ccccc4)cn(C)c(=O)c3[nH]2)c1F [Example 50, 4-(1-cyclopropyl-2-oxo-5-phenyl-1,2-dihydropyridin-4-yl)-2-(2-fluoro-3-methoxyphenyl)-6-methyl-1,6-dihydro-7H-pyrrolo[2,3-c]pyridin-7-one] | > 1 | < 0.01 | xxxx (Fold >1000) |
| Cn1cc(-c2cccc(C(C)(C)O)c2)c(-c2cn(C)c(=O)c3[nH]c(-c4ccc(F)cc4F)cc23)cc1=O [Example 51, 2-(2,4-difluorophenyl)-4-(5-(3-(2-hydroxypropan-2-yl)phenyl)-1-methyl-2-oxo-1,2-dihydropyridin-4-yl)-6-methyl-1,6-dihydro-7H-pyrrolo[2,3-c]pyridin-7-one] | > 1 | < 0.01 | xxxx (Fold >1000) |
| COCCn1cc(-c2ccccc2)c(-c2cn(C)c(=O)c3[nH]c(-c4cnn(C(F)(F)F)c4)cc23)cc1=O [Example 52, 4-(1-(2-methoxyethyl)-2-oxo-5-phenyl-1,2-dihydropyridin-4-yl)-6-methyl-2-(1-(trifluoromethyl)-1H-pyrazol-4-yl)-1,6-dihydro-7H-pyrrolo[2,3-c]pyridin-7-one] | > 1 | < 0.01 | xxxx (Fold >1000) |
| COCCOc1cccc(-c2cn(C)c(=O)cc2-c2cn(C)c(=O)c3[nH]c(-c4ccc(F)cc4F)cc23)c1 [Example 53, 2-(2,4-difluorophenyl)-4-(5-(3-(2-methoxyethoxy)phenyl)-1-methyl-2-oxo-1,2-dihydropyridin-4-yl)-6-methyl-1,6-dihydro-7H-pyrrolo[2,3-c]pyridin-7-one] | > 1 | < 0.01 | xxxx (Fold >1000) |
| Cc1cccc(C)c1Oc1cn(C)c(=O)cc1-c1cn(C)c(=O)c2[nH]c(-c3cnc(C(C)C)s3)cc12 [Example 54, 4-(5-(2,6-dimethylphenoxy)-1-methyl-2-oxo-1,2-dihydropyridin-4-yl)-2-(2-isopropylthiazol-5-yl)-6-methyl-1,6-dihydro-7H-pyrrolo[2,3-c]pyridin-7-one] | > 1 | < 0.01 | xxxx (Fold >1000) |
| Cc1cccc(C)c1Oc1cn(C)c(=O)cc1-c1cn(C)c(=O)c2[nH]c(-c3cc(F)cc(F)c3F)cc12 [Example 55, 4-(5-(2,6-dimethylphenoxy)-1-methyl-2-oxo-1,2-dihydropyridin-4-yl)-6-methyl-2-(2,3,5-trifluorophenyl)-1,6-dihydro-7H-pyrrolo[2,3-c]pyridin-7-one] | > 1 | < 0.01 | xxxx (Fold >1000) |
| COc1cccc(-c2cc3c(-c4cc(=O)n(C)cc4Oc4c(C)cccc4C)cn(C)c(=O)c3[nH]2)c1F [Example 56, 4-(5-(2,6-dimethylphenoxy)-1-methyl-2-oxo-1,2-dihydropyridin-4-yl)-2-(2-fluoro-3-methoxyphenyl)-6-methyl-1,6-dihydro-7H-pyrrolo[2,3-c]pyridin-7-one] | > 1 | < 0.01 | xxxx (Fold >1000) |
| Cc1cccc(C)c1Oc1cn(C)c(=O)cc1-c1cn(C)c(=O)c2[nH]c(-c3cccc(CO)c3F)cc12 [Example 57, 4-(5-(2,6-dimethylphenoxy)-1-methyl-2-oxo-1,2-dihydropyridin-4-yl)-2-(2-fluoro-3-(hydroxymethyl)phenyl)-6-methyl-1,6-dihydro-7H-pyrrolo[2,3-c]pyridin-7-one] | > 1 | < 0.01 | xxxx (Fold >1000) |
| Cc1cccc(C)c1Oc1cn(C)c(=O)cc1-c1cn(C)c(=O)c2[nH]c(-c3ccc(CO)cc3F)cc12 [Example 58, 4-(5-(2,6-dimethylphenoxy)-1-methyl-2-oxo-1,2-dihydropyridin-4-yl)-2-(2-fluoro-4-(hydroxymethyl)phenyl)-6-methyl-1,6-dihydro-7H-pyrrolo[2,3-c]pyridin-7-one] | > 1 | < 0.01 | xxxx (Fold >1000) |
| Cn1cc(-c2cc(=O)n(CCOC(F)(F)F)cc2-c2ccccc2)c2cc(-c3cnn(C(F)(F)F)c3)[nH]c2c1=O [Example 59, 6-methyl-4-(2-oxo-5-phenyl-1-(2-(trifluoromethoxy)ethyl)-1,2-dihydropyridin-4-yl)-2-(1-(trifluoromethyl)-1H-pyrazol-4-yl)-1,6-dihydro-7H-pyrrolo[2,3-c]pyridin-7-one] | > 1 | 0.05 to 0.2 | xx (Fold >50 and ≤200) |
| Cn1cc(-c2cc(=O)n(CCO)cc2-c2ccccc2)c2cc(-c3cnn(C(F)(F)F)c3)[nH]c2c1=O [Example 60, 4-(1-(2-hydroxyethyl)-2-oxo-5-phenyl-1,2-dihydropyridin-4-yl)-6-methyl-2-(1-(trifluoromethyl)-1H-pyrazol-4-yl)-1,6-dihydro-7H-pyrrolo[2,3-c]pyridin-7-one] | > 1 | 0.01 to 0.05 | xxx (Fold >200 and ≤1000) |
| CN(C)CCn1cc(-c2ccccc2)c(-c2cn(C)c(=O)c3[nH]c(-c4cnn(C(F)(F)F)c4)cc23)cc1=O.O=CO [Example 61, 4-(1-(2-(dimethylamino)ethyl)-2-oxo-5-phenyl-1,2-dihydropyridin-4-yl)-6-methyl-2-(1-(trifluoromethyl)-1H-pyrazol-4-yl)-1,6-dihydro-7H-pyrrolo[2,3-c]pyridin-7-one formate] | 0.05 to 0.5 | < 0.01 | x (Fold >2 and ≤50) |
| Cn1cc(-c2cc(=O)n(CCN3CCOCC3)cc2-c2ccccc2)c2cc(-c3cnn(C(F)(F)F)c3)[nH]c2c1=O [Example 62, 6-methyl-4-(1-(2-morpholinoethyl)-2-oxo-5-phenyl-1,2-dihydropyridin-4-yl)-2-(1-(trifluoromethyl)-1H-pyrazol-4-yl)-1,6-dihydro-7H-pyrrolo[2,3-c]pyridin-7-one] | > 1 | < 0.01 | xxxx (Fold >1000) |
| CN1CCC(n2cc(-c3ccccc3)c(-c3cn(C)c(=O)c4[nH]c(-c5cnn(C(F)(F)F)c5)cc34)cc2=O)CC1 [Example 63, 6-methyl-4-(1-(1-methylpiperidin-4-yl)-2-oxo-5-phenyl-1,2-dihydropyridin-4-yl)-2-(1-(trifluoromethyl)-1H-pyrazol-4-yl)-1,6-dihydro-7H-pyrrolo[2,3-c]pyridin-7-one] | 0.5 to 1 | < 0.01 | xx (Fold >50 and ≤200) |
| Cn1cc(-c2cc(=O)n(C3CC(O)C3)cc2-c2ccccc2)c2cc(-c3cnn(C(F)(F)F)c3)[nH]c2c1=O (stereo not drawn) [Example 64, 4-(1-(3-hydroxycyclobutyl)-2-oxo-5-phenyl-1,2-dihydropyridin-4-yl)-6-methyl-2-(1-(trifluoromethyl)-1H-pyrazol-4-yl)-1,6-dihydro-7H-pyrrolo[2,3-c]pyridin-7-one] | 0.5 to 1 | 0.05 to 0.2 | x (Fold >2 and ≤50) |
| CC(C)n1cc(-c2[nH]c3c(=O)n(C)cc(-c4cc(=O)n(C)cc4-c4ccccc4)c3c2F)cn1 [Example 65, 4-[3-fluoro-2-(1-isopropylpyrazol-4-yl)-6-methyl-7-oxo-1H-pyrrolo[2,3-c]pyridin-4-yl]-1-methyl-5-phenylpyridin-2-one] | > 1 | 0.01 to 0.05 | xxx (Fold >200 and ≤1000) |
| Cn1cc(-c2cccnc2)c(-c2cn(C)c(=O)c3[nH]c(-c4cnn(C(F)(F)F)c4)cc23)cc1=O [Example 66, 6-methyl-4-(1-methyl-6-oxo-1,6-dihydro-[3,3′-bipyridin]-4-yl)-2-(1-(trifluoromethyl)-1H-pyrazol-4-yl)-1,6-dihydro-7H-pyrrolo[2,3-c]pyridin-7-one] | > 1 | 0.2 to 1 | x (Fold >2 and ≤50) |
| Cn1cc(-c2cccnc2)c(-c2cn(C)c(=O)c3[nH]c(-c4cnn(C(F)(F)F)c4)c(F)c23)cc1=O [Example 67, 3-fluoro-6-methyl-4-(1-methyl-6-oxo-1,6-dihydro-[3,3′-bipyridin]-4-yl)-2-(1-(trifluoromethyl)-1H-pyrazol-4-yl)-1,6-dihydro-7H-pyrrolo[2,3-c]pyridin-7-one] | > 1 | 0.01 to 0.05 | xxx (Fold >200 and ≤1000) |
| Cn1cc(-c2c(-c3ccccc3)cn(CCO)c(=O)c2C(F)(F)F)c2cc(-c3cnn(C(F)(F)F)c3)[nH]c2c1=O [Example 68, 4-(1-(2-hydroxyethyl)-2-oxo-5-phenyl-3-(trifluoromethyl)-1,2-dihydropyridin-4-yl)-6-methyl-2-(1-(trifluoromethyl)-1H-pyrazol-4-yl)-1,6-dihydro-7H-pyrrolo[2,3-c]pyridin-7-one] | > 1 | 0.2 to 1 | x (Fold >2 and ≤50) |
| Cn1cc(-c2ccccc2)c(-c2cn(C)c(=O)c3[nH]c(-c4ccc(F)c(C(C)(C)O)c4)cc23)cc1=O [Example 69] | 0.5 to 1 | < 0.01 | xxx (Fold >200 and ≤1000) |
| Cn1cc(-c2ccccc2C(F)F)c(-c2cn(C)c(=O)c3[nH]c(-c4ccc(F)cc4F)cc23)cc1=O [Example 70] | > 1 | 0.2 to 1 | x (Fold >2 and ≤50) |
